d = 2'-deoxy (DNA)
How the values were obtained:
Assay type in all cases: cell-based, human
RPE1 cells = assay: FACS of nocodazole shift with kinase inhibitors and siGCP3 (p38 dependence); conditions: FIG. 7
Method: (§1) For flow cytometry (i.e., fluorescence-activated cell sorter or FACS) experiments, siRNAs were delivered to cells as described above, and were incubated for 50-70 hours. To synchronize cells, nocodazole was added to the cells to a concentration of 5 μg/mL for 12 hours. Cells were stained with propidium iodide and analyzed by flow cytometry (FACSCAN; Becton Dickinson) using FLOJO® software (Tree Star, Inc., Ashland, Oreg.).
The following experiment was performed to test if p38, an upstream component of p53 signaling, is required for the centrosomal cell cycle arrest phenotype described herein. The following inhibitors were added to RPE1 cells 1 hour prior to siRNA treatment at the indicated concentrations: SB203580 (p38 inhibitor) 40 μM, SB202190 (p38 inhibitor) 10 μM, and PD98059 (MAPK inhibitor) 50 μM. All inhibitors were obtained from Calbiochem and dissolved in DMSO. siRNA treatment and FACS analysis was performed as described in Example 2.

RPE cells [1] = assay: Flow cytometry (FACS) of nocodazole-induced shift from G1 to G2/M peak after siRNA treatment; conditions: siRNA 50-70 hours, nocodazole 5 μg/mL 12 hours; FIG. 3A, FIG. 8
Method: as §1
In another approach to evaluating the effect requirement for centrosomal gene products, fluorescence assisted cell sorting (flow cytometry or FACS) analysis was performed as described in Gromley et al., J. Cell Biol., 161:535-545 (2003). Briefly, cells were treated with indicated siRNA for at least 50-70 hours, unless otherwise indicated. Cells were synchronized by adding nocodazole to 5 μg/mL for 12 hours prior to cell collection. Cells were collected, fixed in methanol, stained with propidium iodide, and analyzed by flow cytometry (FACSCAN®;Becton Dickinson) using FLOJO® software (Tree Star, Inc.).
FIG. 3A is a graph showing the effects of depleting the indicated centrosomal gene products by siRNA treatment. The left side of the graph depicts the FACS results for treated cells before the addition of nocodazole (-noc). The major fluorescence peak in (-noc) cells is the G1 peak, (i.e., lower DNA fluorescence). The right side of the graph depicts the results for cells after nocodazole treatment (+noc). […] This may be due to inefficient silencing caused by the siRNAs used.
The ability of a number of centrosomal genes to inhibit cell cycling of RPE1 cells was tested by treating cells with siRNAs and performing FACS analysis as described in Example 2.

RPE cells [2] = assay: BrDU incorporation after siRNA treatment and nocodazole synchronization; conditions: relative to control cells (siRNA to lamin), after nocodazole release; FIG. 2A
Method: To further study the effects of silencing centrosomal genes, the following cell cycle experiments were performed using RPE cells. In immunofluorescence experiments, cells were delivered by OLIGOFECTAMINE in a media solution containing between 1-100 nanomolar concentration of siRNAs. After 4 hours of incubation with lipofectamine, cells were washed, and cell cycle progression was assayed by (i) treating cells with 5-Bromo-2′-deoxyuridine (BrDU from Sigma, St Louis, Mo.) for 24 hours and staining for BrDU or (ii) staining cells with antibody to Ki-67 (BD Biosciences) according to manufacturer's instructions. BrDU treatment and staining were performed as follows: after 50-70 hours incubation with siRNA, BrDU was added to cells at a final concentration of 5 μg/ml. Cells were fixed in −20° C. methanol and then treated with 2N HCL at 22° C. for 30 minutes, incubated with 1:500 mouse anti-BrdU antibody (Becton Dickinson, Palo Alto, Calif.), and labeled with 1:1,000 goat FITC-mouse antibody (Molecular Probes, Inc.). Cells were also treated with 4′,6-diamidino-2-phenylindole (DAPI) (Molecular Probes) according to the manufacturer's instructions. Cells were prepared, imaged, and the resulting images were deconvolved as described in Example 1.
Upon release from nocodazole treatment, proliferating cells typically resume cell cycle progression. Chromosomal DNA in the cells was imaged using DAPI (faint ghost-like staining) and/or BrDU (brighter staining). Although DAPI can be used to visualize DNA at any stage of the cell cycle, BrDU is only incorporated into newly synthesized DNA only during S-phase. Thus, BrDU incorporation can be used as a marker of cells that progress through at least one S-phase of the cell cycle. Control cells in this experiment were treated with siRNA to lamin.

RPE cells [3] = assay: CFDA-SE labeling cell division assay; conditions: during the 72 hours following siRNA treatment; FIG. 4
From the text: RPE cells were transfected with siRNA directed to pericentrin A/B or lamin (control) as described in Example 2. Immediately prior to siRNA transfection cells were labeled with a succinimidyl ester of carboxyfluorescein diacetate (CFDA-SE from Molecular Probes, Eugene, Oreg.) according to manufacturers instructions. CFDA-SE is a fluorescent marker that spontaneously and irreversibly couples to free amines on intracellular and cell-surface proteins. When a cells divides, CFDA-SE labeling is inherited equally by daughter cells, which are therefore half as fluorescent as the parent cell. Cells were prepared for and analyzed by fluorescence microscopy as described in Example 1.

cdc14A = assay: Anti-cdc14A immunofluorescence intensity in siRNA-treated cells; conditions: 25 cells; FIG. 1C
Method: To test the ability of siRNAs to silence centrosomal gene products, cells were treated with siRNAs for 24 hours. Cells were diploid, telomerase-immortalized human retinal pigment epithelial (RPE1) cells (hTERT-RPE1s from Clontech, Palo Alto, Calif.) (see Morales et al., Nat Genet, 21:115-118, 1999). siRNAs directed to δ-tubulin (SEQ ID NO:2), γ-tubulin (SEQ ID NO:4), GCP2 (SEQ ID NO:5), GCP3(SEQ ID NO:6), cNAP1 (SEQ ID NO:8), PCM1 (SEQ ID NO:9), ninein (SEQ ID NO:21), NEK2a (SEQ ID NO:10), centrin2 (SEQ ID NO:12), CDC14A (SEQ ID NO:13), gapcena (SEQ ID NO:15), nemo (SEQ ID NO:16), pericentrin (SEQ ID NO:23), lamin A/C (CUGGACUUCCAGAAGAACA, SEQ ID NO: 24) zyxin (UGUGGCUGUCAACGAACUC, SEQ ID NO:25), and p53 (GGACAAGGGUUGGGCUGGG, SEQ ID NO:26) were made as complementary single stranded 19-mer siRNAs with 3′ dTdT overhangs (Dharmacon Inc., Lafayette, Colo.), deprotected, annealed and delivered into cells using OLIGOFECTAMINE® from Invitrogen (Carlsbad, Calif.). Nucleotides were delivered in media containing up to 100 nanomolar concentrations of siRNAs. […]
FIG. 1C is a histogram quantifying anti-cdc14A immunofluorescence observed in 25 cells treated with (i) siRNA to CDC14 (siCDC14) or (ii) control siLamin.

δ-tubulin = assay: Immunofluorescence of centrosomal δ-tubulin after siRNA treatment; conditions: vs lamin control; FIG. 1D
Method: To test the ability of siRNAs to silence centrosomal gene products, cells were treated with siRNAs for 24 hours. Cells were diploid, telomerase-immortalized human retinal pigment epithelial (RPE1) cells (hTERT-RPE1s from Clontech, Palo Alto, Calif.) (see Morales et al., Nat Genet, 21:115-118, 1999). siRNAs directed to δ-tubulin (SEQ ID NO:2), γ-tubulin (SEQ ID NO:4), GCP2 (SEQ ID NO:5), GCP3(SEQ ID NO:6), cNAP1 (SEQ ID NO:8), PCM1 (SEQ ID NO:9), ninein (SEQ ID NO:21), NEK2a (SEQ ID NO:10), centrin2 (SEQ ID NO:12), CDC14A (SEQ ID NO:13), gapcena (SEQ ID NO:15), nemo (SEQ ID NO:16), pericentrin (SEQ ID NO:23), lamin A/C (CUGGACUUCCAGAAGAACA, SEQ ID NO: 24) zyxin (UGUGGCUGUCAACGAACUC, SEQ ID NO:25), and p53 (GGACAAGGGUUGGGCUGGG, SEQ ID NO:26) were made as complementary single stranded 19-mer siRNAs with 3′ dTdT overhangs (Dharmacon Inc., Lafayette, Colo.), deprotected, annealed and delivered into cells using OLIGOFECTAMINE® from Invitrogen (Carlsbad, Calif.). Nucleotides were delivered in media containing up to 100 nanomolar concentrations of siRNAs.
Commercial antibodies to the following proteins were used in this study: lamin A/C (Cell Signaling Technology, Beverly, Mass.), δ-, ε-, or γ-tubulin (Sigma-Aldrich, St. Louis, Mo.), zyxin (Santa Cruz Biotechnology, Santa Cruz, Calif.), Nek2A (Zymed, South San Francisco, Calif.), p53 (Calbiochem, San Diego, Calif.). […]

COc1cccc(-c2cc(=O)c3ccccc3o2)c1N [map kinase inhibitor, PD98059]
effect of inhibitor alone on nocodazole-induced shift from G1 to G2/M peak (RPE1 cells; SB203580 40 μM, SB202190 10 μM, PD98059 50 μM): did not inhibit the nocodazole-induced shift | effect of inhibitor on siGCP3-induced cell cycle arrest (RPE1 cells; inhibitor added 1 hour prior to siGCP3, SB203580 40 μM, SB202190 10 μM, PD98059 50 μM): did not affect siGCP3's ability to cause cell cycle arrest

AAGAGAAGCAGAUGCUGCA (siRNA; RNA, 3' dTdT, backbone not given here) [siGCP3, siRNA directed to GCP3]
effect of siRNA on nocodazole-induced shift from G1 to G2/M peak (RPE1 cells; siRNA alone): inhibited this shift | inhibition of nocodazole-induced shift from G1 peak to G2/M peak (RPE cells [1]): prevented nocodazole-induced shift

ACUUCGCCUGGUCCAACUU (siRNA; RNA, 3' dTdT, backbone not given here) [GCP-5, siRNA directed to GCP5]
inhibition of nocodazole-induced shift from G1 peak to G2/M peak (RPE cells [1]): prevented nocodazole-induced shift

AGGGAACCAAGGAAAGGCA (siRNA; RNA, 3' dTdT, backbone not given here) [NEK, siRNA directed to NEK2]
incorporation of BrDU into chromosomal material (RPE cells [2]): less pronounced | inhibition of nocodazole-induced shift from G1 peak to G2/M peak (RPE cells [1]): did not cause a pronounced inhibition of the shift

CUGGACUUCCAGAAGAACA (siRNA; RNA, 3' dTdT, backbone not given here) [lamin, control siRNA directed to lamin A/C, reference compound]
cells that never divided (RPE cells [3]): ~7%

GAGCAAAAGCAGGAGAUCC (siRNA; RNA, 3' dTdT, backbone not given here) [centrin, siRNA directed to centrin2]
incorporation of BrDU into chromosomal material (RPE cells [2]): clearly inhibited incorporation of BrDU

GCACAGUAAAUACCCACUA (siRNA; RNA, 3' dTdT, backbone not given here) [siCDC14, siRNA directed to CDC14A]
cells displaying lower anti-cdc14A fluorescence intensity than the lowest control (siLamin treated) cell (cdc14A): 68%

GCAGCUGAGCUGAAGGAGA (siRNA; RNA, 3' dTdT, backbone not given here) [pericentrin A/B, siRNA directed to both pericentrin A and pericentrin B]
cells that never divided (RPE cells [3]): 40%

GGUUCUGGAAACAACUGGG (siRNA; RNA, 3' dTdT, backbone not given here) [siδ-tubulin, siRNA directed to δ-tubulin]
centrosomal δ-tubulin staining (δ-tubulin): reduced the number and/or fluorescence intensity of centrosomal staining

GUCCCCCAAACAGAGAAAC (siRNA; RNA, 3' dTdT, backbone not given here) [PCM-1, siRNA directed to PCM1]
inhibition of nocodazole-induced shift from G1 peak to G2/M peak (RPE cells [1]): prevented nocodazole-induced shift

UAUGAGCAUUGAGGCAGAG (siRNA; RNA, 3' dTdT, backbone not given here) [ninein]
inhibition of nocodazole-induced shift from G1 peak to G2/M peak (RPE cells [1]): did not cause a pronounced inhibition of the shift

UCUAUCCGAAAGCCCAGUC (siRNA; RNA, 3' dTdT, backbone not given here) [CNAP, siRNA directed to cNAP1]
incorporation of BrDU into chromosomal material (RPE cells [2]): clearly inhibited incorporation of BrDU | inhibition of nocodazole-induced shift from G1 peak to G2/M peak (RPE cells [1]): prevented nocodazole-induced shift

Reference: US20050208058A1, “Compositions and methods for modulating cell division” (priority 2003, published 2005)
